Literature values, collected in patent US20090304869A1, “Peptides Having an Ace Inhibiting Effect” (priority 2005, published 2009).

Experiments:
[1] = target: ACE (Homo sapiens, UniProt P12821); conditions: peptides in fermented milk products
[2] = in sour milk, hypertensive humans

Sequence of ACE (P12821 30-1306, species assumed): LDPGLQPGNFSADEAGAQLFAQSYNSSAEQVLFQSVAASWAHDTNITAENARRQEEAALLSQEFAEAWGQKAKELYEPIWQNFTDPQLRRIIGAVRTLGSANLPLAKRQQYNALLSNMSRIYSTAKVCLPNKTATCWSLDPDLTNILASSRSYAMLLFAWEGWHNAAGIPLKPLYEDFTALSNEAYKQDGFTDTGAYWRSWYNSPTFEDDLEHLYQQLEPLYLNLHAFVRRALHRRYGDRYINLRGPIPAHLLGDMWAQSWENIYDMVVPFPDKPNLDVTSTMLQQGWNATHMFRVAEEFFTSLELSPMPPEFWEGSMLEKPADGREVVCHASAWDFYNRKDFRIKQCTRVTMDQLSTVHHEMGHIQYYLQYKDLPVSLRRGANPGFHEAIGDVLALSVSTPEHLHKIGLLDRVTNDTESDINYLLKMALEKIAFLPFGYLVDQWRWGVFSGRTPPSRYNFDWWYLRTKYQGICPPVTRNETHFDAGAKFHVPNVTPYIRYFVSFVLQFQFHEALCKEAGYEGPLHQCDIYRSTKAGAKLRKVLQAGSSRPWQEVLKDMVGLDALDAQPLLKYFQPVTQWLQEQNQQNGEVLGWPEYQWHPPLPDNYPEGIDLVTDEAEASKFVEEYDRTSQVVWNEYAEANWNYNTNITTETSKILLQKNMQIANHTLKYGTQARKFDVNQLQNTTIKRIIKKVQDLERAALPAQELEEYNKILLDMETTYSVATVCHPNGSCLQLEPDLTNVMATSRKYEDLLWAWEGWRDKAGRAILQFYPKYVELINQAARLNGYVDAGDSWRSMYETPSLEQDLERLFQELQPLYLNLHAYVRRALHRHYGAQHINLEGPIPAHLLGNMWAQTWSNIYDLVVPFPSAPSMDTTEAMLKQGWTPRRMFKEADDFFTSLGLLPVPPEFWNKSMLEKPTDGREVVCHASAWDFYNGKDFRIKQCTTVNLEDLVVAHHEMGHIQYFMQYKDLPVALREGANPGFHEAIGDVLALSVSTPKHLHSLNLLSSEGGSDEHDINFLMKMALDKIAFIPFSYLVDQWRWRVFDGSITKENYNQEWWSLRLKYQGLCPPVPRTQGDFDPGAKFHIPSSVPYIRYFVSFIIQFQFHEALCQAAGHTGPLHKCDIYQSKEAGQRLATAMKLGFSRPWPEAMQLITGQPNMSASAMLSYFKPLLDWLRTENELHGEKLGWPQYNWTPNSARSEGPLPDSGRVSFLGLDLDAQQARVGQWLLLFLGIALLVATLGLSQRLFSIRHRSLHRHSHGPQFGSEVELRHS

## CC[C@H](C)[C@H](N)C(=O)N1CCC[C@H]1C(=O)N1CCC[C@H]1C(=O)O [IPP]
[1]
  in vitro ACE inhibition: showed in vitro ACE inhibition
[2]
  blood pressure lowering effect: blood pressure lowering effect
